Experiments:
[1] = test system: MiaPaca2 human pancreatic carcinoma xenografts; assay: Antitumor efficacy in MiaPaca2 pancreatic xenografts in nude mice; assay type: in vivo; conditions: 60 mg/kg ip q3d, day 37
Protocol: Female (athymic nu/nu) nude mice were obtained from Charles River Laboratories (Wilmington, Mass.), while female SCID-beige mice were purchased from Taconic (Germantown, N.Y.). Mice were used when they were approximately 8-12 weeks old (nudes) or 8-10 weeks old (SCID-beige), and weighed approximately 23-25 grams. The health of all animals was determined daily by gross observation of experimental animals and by the analyses of blood samples of sentinel animals that were housed on the shared shelf racks. All animals were allowed to acclimate and recover from any shipping related stress for a minimum of 72 hours prior to experimental use. Autoclaved water and irradiated food [5058-ms Pico chow (mouse) Purina, Richmond, Ind.] were provided ad libitum, and the animals were maintained on a 12 hour light and dark cycle. Cages, bedding and water bottles were autoclaved before use and were changed weekly. MiaPaca2, AsPC1 and BxPC3 human pancreatic carcinoma cells were purchased from ATCC (Manassas, Va.). BxPC3 and AsPC1 cells were grown in RPMI medium and MiaPaca2 cells were grown in Dulbecco's Modified Essential Medium (DMEM). All culture media were supplemented with 10% (v/v) FBS and 1% (v/v) […]. […] SCID-biege mice were implanted se with 5×10^6 BxPC3 cells in a 1:1 mixture of matrigel:PBS in a volume of 0.2 ml per mouse in the right hind flank on May 22, 2007. […] Formulated compound and vehicle were stored at 4° C. and prepared weekly. The suspension was mixed vigorously prior to administration. Gemcitabine (Gemzar®, Eli Lilly and Company, Indianapolis, Ind., USA) was reconstituted with sterile saline to yield a stock solution of 38 mg/ml for the entire 3-4 week study. […] Nude mice implanted with MiaPaca2 or AsPC1 xenografts were randomized on day 17 and day 9 post cell implant, respectively. SCID-beige mice bearing BxPC3 xenografts were randomized 8 days post implant. […] Treatment for the MiaPaca2 study began on Feb. […] For the MiaPaca2 and AsPC1 studies, qd Compound (1) suspension or q3d gemcitabine treatment ended on day 37 post tumor cell implant, whereas for the BxPC3 study, qd Compound (1) suspension or q3d gemcitabine treatment ended on day 35 post tumor cell implant. For intermittent dosing of Compound (1) suspension in the MiaPaca2 study using the 7+/7−/7+ schedule, treatment ended on day 23, was reinitiated on day 31, and ended day 37. In the combination groups Compound (1) suspension was given sequentially with gemcitabine using the 7+/7−/7+ schedule so that Compound (1) was dosed daily only during the first and third weeks, whereas gemcitabine was dosed q3d during the second week only. Efficacy data was graphically represented as the mean tumor volume+standard error of the mean (SEM). Tumor volumes of treated groups were presented as percentages of tumor volumes of the control groups (% T/C), using the formula: 100×((T−T0)/(C−C0)), where T represented mean tumor volume of a treated group on a specific day during the experiment, T0 represented mean tumor volume of the same […] on the first day of treatment; C represented mean tumor volume of a control group on the specific day during the experiment, and C0 represented mean tumor volume of the same treated group on the first day of treatment. Tumor volume (in cubic millimeters) was calculated using the ellipsoid formula: (D×(d2))/2 where ‘D’ represents the large diameter of the tumor, and ‘d’ represents the small diameter. In some cases, tumor regression and/or percent change in tumor volume was calculated using the formula: ((T−T0)/T0)×100 where ‘T’ represents mean tumor volume of the treated group at a particular day, and ‘T0’ represents mean tumor volume of the same treated group at initiation of treatment. Statistical analysis was determined by the rank sum test and One Way Anova and a post-hoc Bonferroni t-test (SigmaStat, version 2.0, Jandel Scientific, San Francisco, Calif.). […]

[2] = test system: AsPC1 human pancreatic carcinoma xenografts; assay: Antitumor efficacy in AsPC1 pancreatic xenografts in nude mice; assay type: in vivo; conditions: 90 mg/kg ip q3d
Protocol: Female (athymic nu/nu) nude mice were obtained from Charles River Laboratories (Wilmington, Mass.), while female SCID-beige mice were purchased from Taconic (Germantown, N.Y.). Mice were used when they were approximately 8-12 weeks old (nudes) or 8-10 weeks old (SCID-beige), and weighed approximately 23-25 grams. The health of all animals was determined daily by gross observation of experimental animals and by the analyses of blood samples of sentinel animals that were housed on the shared shelf racks. All animals were allowed to acclimate and recover from any shipping related stress for a minimum of 72 hours prior to experimental use. Autoclaved water and irradiated food [5058-ms Pico chow (mouse) Purina, Richmond, Ind.] were provided ad libitum, and the animals were maintained on a 12 hour light and dark cycle. Cages, bedding and water bottles were autoclaved before use and were changed weekly. MiaPaca2, AsPC1 and BxPC3 human pancreatic carcinoma cells were purchased from ATCC (Manassas, Va.). BxPC3 and AsPC1 cells were grown in RPMI medium and MiaPaca2 cells were grown in Dulbecco's Modified Essential Medium (DMEM). All culture media were supplemented with 10% (v/v) FBS and 1% (v/v) […]. […] SCID-biege mice were implanted se with 5×10^6 BxPC3 cells in a 1:1 mixture of matrigel:PBS in a volume of 0.2 ml per mouse in the right hind flank on May 22, 2007. […] Formulated compound and vehicle were stored at 4° C. and prepared weekly. The suspension was mixed vigorously prior to administration. Gemcitabine (Gemzar®, Eli Lilly and Company, Indianapolis, Ind., USA) was reconstituted with sterile saline to yield a stock solution of 38 mg/ml for the entire 3-4 week study. […] Nude mice implanted with MiaPaca2 or AsPC1 xenografts were randomized on day 17 and day 9 post cell implant, respectively. SCID-beige mice bearing BxPC3 xenografts were randomized 8 days post implant. […] Treatment for the MiaPaca2 study began on Feb. […] For the MiaPaca2 and AsPC1 studies, qd Compound (1) suspension or q3d gemcitabine treatment ended on day 37 post tumor cell implant, whereas for the BxPC3 study, qd Compound (1) suspension or q3d gemcitabine treatment ended on day 35 post tumor cell implant. For intermittent dosing of Compound (1) suspension in the AsPC1 study using the 7+/7− schedule×2 cycles, treatment ended on day 15, was reinitiated on day 23, and finally ended day 29. For intermittent dosing using the 3+/4− schedule×4 cycles, treatment ended on day 11, was reinitiated on day 16, ended day 18, was reinitiated on day 23, ended day 25, was reinitiated day 30, and finally ended on day 32. In the first combination group, daily Compound (1) was given simultaneously with q3d gemcitabine for a total of four weeks. For the remaining combination groups, Compound (1) and gemcitabine were given sequentially rather than simultaneously. In group 8 gemcitabine was dosed q3d during the 1st and 3rd weeks, whereas Compound (1) was given daily during the 2nd and 4th weeks only. In group 9, the order of compound dosing was reversed, with Compound (1) suspension given daily during the 1st and 3rd weeks, whereas gemcitabine was given q3d during the 2nd and 4th weeks. In group 10, gemcitabine was dosed q3d during the 1st and 2nd weeks, whereas Compound (1) was given daily during the 3rd and 4th weeks. In group 11, the order of compound dosing was reversed, with Compound (1) given daily during the 1st and 2nd weeks, and gemcitabine dosed q3d for the 3rd and 4th weeks. […]

Compound: Nc1ccn([C@@H]2O[C@H](CO)[C@@H](O)C2(F)F)c(=O)n1 [gemcitabine, Gemcitabine, reference compound]
- % TGI [1]: 62%
- % TGI [2]: 39%

— patent publication US8741889B2, “Method of treating non-small cell lung cancer and colon cancer with gamma-secretase inhibitor” (Hoffmann-La Roche Inc, priority 2008, dated 2014)
